One test relates to PC-3. As to the kind of experiment: Growth inhibitory activity was measured for human PC-3 tumor cell line. Conditions: read-out: ID50 (the source's name). In kind it is functional.
Another test has as its system HT-29. In words: Growth inhibitory activity was measured for human HT-29 tumor cell line. Conditions: read-out: ID50 (the source's name). In kind it is functional.
A further test concerns A549. In words: Growth inhibitory activity was measured for human A549 tumor cell line. The settings on record: read-out: ID50 (the source's name). In kind it is functional.
In a further test the test system is MCF7. In words: Growth inhibitory activity was measured for human MCF-7 tumor cell line. In kind it is functional. Conditions: read-out: ID50 (the source's name).
In test [1] the test system is DU-145. In words: Growth inhibitory activity was measured for human DU145 tumor cell line. The class given is functional. Conditions: read-out: ID50 (the source's name).
The next test has as its system U-251. In words: Growth inhibitory activity was measured for human U251MG NCI tumor cell line. The class given is functional. The settings on record: read-out: ID50 (the source's name).
Test [2] has as its system DU-145. In words: The concentration levels of spermine (SP), evaluated in DU145 cells treated with the compound concentration of 5 uM on third day of treatment. The class given is functional, cell-based. The settings on record: Homo sapiens.
Test [3] concerns DU-145. In words: The concentration levels of spermidine (SD) evaluated in DU145 cells treated with the compound concentration of 0.02 uM on fifth day of treatment. The class given is functional, cell-based. The settings on record: Homo sapiens.
Test [4] deals with DU-145. In words: The concentration levels of spermine (SP) evaluated in DU145 cells treated with the compound concentration of 0.02 uM on fifth day of treatment. In kind it is functional, cell-based. The settings on record: Homo sapiens.
Test [5] has as its system DU-145. As to the kind of experiment: The concentration levels of putrescine (PU) evaluated in DU145 cells treated with the compound concentration of 5 uM on fifth day of treatment. In kind it is functional, cell-based. Conditions: Homo sapiens.
Test [6] deals with DU-145. As to the kind of experiment: The concentration levels of analogue evaluated in DU145 cells treated with the compound concentration of 0.02 uM on third day of treatment. The class given is functional, cell-based. The settings on record: Homo sapiens.
Test [7] concerns DU-145. As to the kind of experiment: The concentration levels of spermine (SP) evaluated in DU145 cells treated with the compound concentration of 5 uM on fifth day of treatment. In kind it is functional, cell-based. Conditions: Homo sapiens.
Test [8] relates to DU-145. In words: The concentration levels of analogue evaluated in DU145 cells treated with the compound concentration of 0.02 uM on fifth day of treatment. In kind it is functional, cell-based. The settings on record: Homo sapiens.
For test [9], the system named is DU-145. In words: The concentration levels of spermidine (SD) evaluated in DU145 cells treated with the compound concentration of 5 uM on fifth day of treatment. The class given is functional, cell-based. The settings on record: Homo sapiens.
In test [10] the test system is DU-145. In words: The concentration levels of putrescine (PU) evaluated in DU145 cells treated with the compound concentration of 5 uM on third day of treatment. In kind it is functional, cell-based. The settings on record: Homo sapiens.
In test [11] the test system is DU-145. As to the kind of experiment: The concentration levels of spermidine (SD), evaluated in DU145 cells treated with the compound concentration of 0.02 uM on third day of treatment. In kind it is functional, cell-based. The settings on record: Homo sapiens.
The test system of test [12] is DU-145. As to the kind of experiment: The concentration levels of analogue evaluated in DU145 cells treated with the compound concentration of 5 uM on fifth day of treatment. In kind it is functional, cell-based. Conditions: Homo sapiens.
The test system of test [13] is DU-145. In words: The concentration levels of spermine (SP), evaluated in DU145 cells treated with the compound concentration of 0.02 uM on third day of treatment. The class given is functional, cell-based. Conditions: Homo sapiens.
For test [14], the system named is DU-145. In words: The concentration levels of putrescine (PU) evaluated in DU145 cells treated with the compound concentration of 0.02 uM on fifth day of treatment. In kind it is functional, cell-based. The settings on record: Homo sapiens.
Test [15] has as its system DU-145. In words: The concentration levels of analogue evaluated in DU145 cells treated with the compound concentration of 5 uM on third day of treatment. In kind it is functional, cell-based. Conditions: Homo sapiens.
The test system of test [16] is DU-145. As to the kind of experiment: The concentration levels of putrescine (PU) evaluated in DU145 cells treated with the compound concentration of 0.02 uM on third day of treatment. In kind it is functional, cell-based. Conditions: Homo sapiens.
Test [17] concerns DU-145. In words: The concentration levels of spermidine (SD), evaluated in DU145 cells treated with the compound concentration of 5 uM on third day of treatment. In kind it is functional, cell-based. Conditions: Homo sapiens.

For `CCNCCCNCCCCNCCCNCC` [BIS(ETHYL)SPERMINE], the IC50 in the test with PC-3 (Homo sapiens, PC-3) came out at 240 nM; with HT-29 (Homo sapiens, HT-29) it was 430 nM; with A549 (Homo sapiens, A549) it was 200 nM; in the test with MCF7 it was 550 nM; in the test with DU-145 [1] (Homo sapiens, DU-145), 40 nM; with U-251, 200 nM.

Turning to `CCNCCCNCC1CC1CNCCCNCC` (stereo in doubt; 5), the IC50 with PC-3 worked out at 12400 nM; in the test on HT-29, 1400 nM; in the test on A549, 250 nM; in the test with DU-145 [1], 60 nM.

Regarding `CCNCCCNC/C=C\CNCCCNCC`, the Concentration (nM (10e6*cells)-1) was determined as 0.09 in the test with DU-145 [2]; 1.73 in the test with DU-145 [3]; 1.71 in the test on DU-145 [4]; 0.03 in the test with DU-145 [5]; 0.04 with DU-145 [6]; 0.07 in the test on DU-145 [7]. The Concentration (nM (10e6*cells)-1) came to 0.03 with DU-145 [8]; 0.02 in the test on DU-145 [9]; 0.06 with DU-145 [10]; 1.79 in the test on DU-145 [11]; 2.54 in the test with DU-145 [12]; 2.99 with DU-145 [13]. The Concentration (nM (10e6*cells)-1) with DU-145 [14] came out at 0.04; in the test with DU-145 [15], 2.76; with DU-145 [16] it was 0.11; in the test on DU-145 [17] it was 0.02. Moreover, the IC50 in the test with A549 (Homo sapiens, A549) stood at 250 nM; with DU-145 [1] (Homo sapiens, DU-145), 50 nM.

Regarding `CCNCCCNCC1CC1CNCCCNCC` (stereo in doubt; 9), the IC50 with A549 was found to be 120 nM; in the test with DU-145 [1], 20 nM; in the test on U-251, 100 nM.

Turning to `CCNCCCNC/C=C/CNCCCNCC`, the IC50 in the test with DU-145 [1] (Homo sapiens, DU-145) came to 140 nM.

(Values after ChEMBL document CHEMBL1131189, “Conformationally restricted analogues of 1N,12N-bisethylspermine: synthesis and growth inhibitory effects on human tumor cell lines” (1998).)
